Test results from patent US10144706B2 (BRISTOL-MYERS SQUIBB COMPANY, priority 2016, dated 2018).

The compounds below were run against T1, PD-1/PD-L1 interaction (PD-1-Ig / PD-L1-His) (Homo sapiens, UniProt Q9NZQ7) (assay: PD-1/PD-L1 Homogenous Time-Resolved Fluorescence (HTRF) binding assay). Conditions: IC50 range class; PD-L1-His 10 nM, PD-1-Ig 20 nM; read-out: Range or IC50.
T1 construct: hPDL1(18-239)-TVMV-His; TVMV protease site linker (C); made in house; host or cells: HEK293T
T1 sequence (Q9NZQ7 with tags, fused parts or gaps): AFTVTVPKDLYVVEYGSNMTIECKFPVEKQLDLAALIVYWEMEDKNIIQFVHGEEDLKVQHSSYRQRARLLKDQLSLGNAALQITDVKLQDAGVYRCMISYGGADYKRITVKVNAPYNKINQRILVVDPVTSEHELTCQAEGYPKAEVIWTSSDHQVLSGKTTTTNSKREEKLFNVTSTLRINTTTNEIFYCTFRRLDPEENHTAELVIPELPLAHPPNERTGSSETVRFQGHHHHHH
Outline: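 HTRF detection used 1 nM europium-cryptate anti-Ig and 20 nM APC anti-His. Compounds first saw 10 nM PD-L1-His for 15 min, and 20 nM PD-1-Ig was then added for another 15 min. Buffer was dPBS plus 0.1% BSA and 0.05% Tween-20. All concentrations are final.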
`CCCN(Cc1cc(Cl)c(OCc2cccc(-c3cccc(COc4cc(OCc5cncc(C#N)c5)c(CN(CCC)[C@@H](CCO)C(=O)O)cc4Cl)c3C)c2C)cc1OCc1cncc(C#N)c1)[C@@H](CCO)C(=O)O` [Example 40750] showed an IC50 of 0.04 to 20 nM. In the case of `Cc1c(COc2cc(OCc3cncc(C#N)c3)c(CN[C@@H](CC#N)C(=O)O)cc2Cl)cccc1-c1cccc(COc2cc(OCc3cncc(C#N)c3)c(CN[C@@H](CC#N)C(=O)O)cc2Cl)c1C` [Example 40470], the IC50 is reported as 0.04 to 20 nM. `COc1cc(OCc2cccc(-c3cccc(COc4cc(OC)c(CNCCC(=O)O)cc4Cl)c3C)c2C)c(Cl)cc1CNCCC(=O)O` [Example 5035, 3,3′-((((((2,2′-dimethyl-[1,1′-biphenyl]-3,3′-diyl)bis(methylene))bis(oxy))bis(5-chloro-2-methoxy-4,1-phenylene))bis(methylene))bis(azanediyl))dipropionic acid] gave an IC50 of 0.04 to 20 nM. For `Cc1c(OCCCN2CC[C@@H](O)C2)cccc1-c1ccc2c(c1)OC(CCN1CC[C@@H](O)C1)CO2` (single isomer, unassigned) [Example 3031], the IC50 was 0.04 to 20 nM. With `O=C(NCCCOc1cccc(-c2cccc(OCCCNC(=O)C(O)CO)c2Cl)c1Cl)C(O)CO` (stereo not shown) [Example 2135, N,N′-(((2,2′-dichloro-[1,1′-biphenyl]-3,3′-diyl)bis(oxy))bis(propane-3,1-diyl))bis(2,3-dihydroxypropanamide)] the IC50 was 1000 to 10000 nM. Compound `Cc1c(OCCCNCC(C)(C)CO)cccc1-c1cccc(OCCCN2CC[C@@H](O)C2)c1C` [Example 2046, (R)-1-(3-((3′-(3-((3-hydroxy-2,2-dimethylpropyl)amino)propoxy)-2,2′-dimethyl-[1,1′-biphenyl]-3-yl)oxy)propyl)pyrrolidin-3-ol] has an IC50 of 20.1 to 90 nM. For `Cc1c(OCCCN2CC[C@@H](O)C2)cccc1-c1cccc(OCCCN2CCC[C@@H](C(=O)O)C2)c1C` [Example 2074, (R)-1-(3-((3′-(3-((R)-3-hydroxypyrrolidin-1-yl)propoxy)-2,2′-dimethyl-[1,1′-biphenyl]-3-yl)oxy)propyl)piperidine-3-carboxylic acid], the IC50 was 90.1 to 1000 nM. With `N#Cc1cncc(COc2cc(OCc3cccc(-c4cccc(COc5cc(OCc6cncc(C#N)c6)c(C(=O)NC6COC6)cc5Cl)c4Cl)c3Cl)c(Cl)cc2C(=O)O)c1` [Example 90050] the IC50 was 90.1 to 1000 nM. Compound `Cc1c(OCCCN[C@@H](Cc2cccnc2)C(=O)O)cccc1-c1cccc(OCCCN2CC[C@@H](O)C2)c1C` [Example 2117, (S)-2-((3-((3′-(3-((R)-3-hydroxypyrrolidin-1-yl)propoxy)-2,2′-dimethyl-[1,1′-biphenyl]-3-yl)oxy)propyl)amino)-3-(pyridin-3-yl)propanoic acid] has an IC50 of 90.1 to 1000 nM. Work on `Cc1c(COc2cc(OCc3cncc(C#N)c3)c(CO)cc2Cl)cccc1-c1cccc(COc2cc(OCc3cncc(C#N)c3)c(CN[C@@H](C(=O)O)[C@H](C)O)cc2Cl)c1C` [Example 50250] yielded an IC50 of 0.04 to 20 nM. `Cc1c(OCCCN(CCO)Cc2ccccc2)cccc1-c1cccc(OCCCN2CC[C@@H](O)C2)c1C` [Example 2072, (R)-1-(3-((3′-(3-(benzyl(2-hydroxyethyl)amino)propoxy)-2,2′-dimethyl-[1,1′-biphenyl]-3-yl)oxy)propyl)pyrrolidin-3-ol] showed an IC50 of 90.1 to 1000 nM. `Cc1c(COc2cc(OCc3cncc(C#N)c3)c(CNC(CO)(Cc3ccccc3)C(=O)O)cc2Cl)cccc1-c1cccc(COc2cc(OCc3cncc(C#N)c3)c(CNC(CO)(Cc3ccccc3)C(=O)O)cc2Cl)c1C` (stereo not shown) [Example 40200] showed an IC50 of 0.04 to 20 nM. In the case of `COc1cc(OCc2cccc(-c3cccc(COc4cc(OC)c(CNCc5cncnc5)cc4Cl)c3C)c2C)c(Cl)cc1CNCc1cncnc1` [Example 5033, 1,1′-((((2,2′-dimethyl-[1,1′-biphenyl]-3,3′-diyl)bis(methylene))bis(oxy))bis(5-chloro-2-methoxy-4,1-phenylene))bis(N-(pyrimidin-5-ylmethyl)methanamine)], the IC50 is reported as 0.04 to 20 nM. For `Cc1c(NCCCN2CC[C@@H](O)C2)cccc1-c1cccc(OCCCN2CC[C@@H](O)C2)c1C` [Example 3018, (R)-1-(3-((3′-(3-((R)-3-hydroxypyrrolidin-1-yl)propoxy)-2,2′-dimethyl-[1,1′-biphenyl]-3-yl)amino)propyl)pyrrolidin-3-ol], the IC50 was 90.1 to 1000 nM. Work on `Cc1c(OCCCN2CC(N(C)C)C2)cccc1-c1cccc(OCCCN2CC(N(C)C)C2)c1C` [Example 2087, 1,1′-(((2,2′-dimethyl-[1,1′-biphenyl]-3,3′-diyl)bis(oxy))bis(propane-3,1-diyl))bis(N,N-dimethylazetidin-3-amine)] yielded an IC50 of 90.1 to 1000 nM. `N#Cc1cncc(COc2cc(OCc3cccc(-c4cccc(COc5cc(OCc6cncc(C#N)c6)c(C(=O)NCCO)cc5Cl)c4Cl)c3Cl)c(Cl)cc2C(=O)NCCO)c1` [Example 80200] gave an IC50 of 90.1 to 1000 nM. `Cc1c(OCCCNC2CCN(CCO)CC2)cccc1-c1cccc(OCCCN2CC[C@@H](O)C2)c1C` [Example 2067, (R)-1-(3-((3′-(3-((1-(2-hydroxyethyl)piperidin-4-yl)amino)propoxy)-2,2′-dimethyl-[1,1′-biphenyl]-3-yl)oxy)propyl)pyrrolidin-3-ol] showed an IC50 of 20.1 to 90 nM. `Cc1c(OCCCNC[C@H](O)CO)cccc1-c1cccc(OCCCN(CCc2cccnc2)C[C@H](O)CO)c1C` [Example 2103, (S)-3-((3-((3′-(3-(((S)-2,3-dihydroxypropyl)(2-(pyridin-3-yl)ethyl)amino)propoxy)-2,2′-dimethyl-[1,1′-biphenyl]-3-yl)oxy)propyl)amino)propane-1,2-diol] showed an IC50 of 0.04 to 20 nM. In the case of `CCN(CC)CCCNCc1cc(Cl)c(OCc2cccc(-c3cccc(COc4cc(OCc5cncc(C#N)c5)c(CNCCCN(CC)CC)cc4Cl)c3)c2)cc1OCc1cncc(C#N)c1` [Example 40070], the IC50 is reported as 0.04 to 20 nM. For `Cc1c(COc2cc(OCc3cncc(C#N)c3)c(CO)cc2Cl)cccc1-c1cccc(COc2cc(OCc3cncc(C#N)c3)c(CN[C@H](CCO)C(=O)O)cc2Cl)c1C` [Example 50210], the IC50 was 0.04 to 20 nM. `Cc1c(OCCCNC2CCN(C)CC2)cccc1-c1cccc(OCCCN2CC[C@@H](O)C2)c1C` [Example 2066, (R)-1-(3-((2,2′-dimethyl-3′-(3-((1-methylpiperidin-4-yl)amino)propoxy)-[1,1′-biphenyl]-3-yl)oxy)propyl)pyrrolidin-3-ol] showed an IC50 of 90.1 to 1000 nM. `Cc1c(OCCCNC[C@@H](O)CO)cccc1-c1cccc(OCCCN2CC[C@@H](O)C2)c1C` [Example 2052, (R)-3-((3-((3′-(3-((R)-3-hydroxypyrrolidin-1-yl)propoxy)-2,2′-dimethyl-[1,1′-biphenyl]-3-yl)oxy)propyl)amino)propane-1,2-diol] showed an IC50 of 90.1 to 1000 nM. For `Cc1c(OCCCN2CC[C@@H](O)C2)cccc1-c1cccc(OCCCN2CCO[C@@H](CO)C2)c1C` [Example 2092, (R)-1-(3-((3′-(3-((R)-2-(hydroxymethyl)morpholino)propoxy)-2,2′-dimethyl-[1,1′-biphenyl]-3-yl)oxy)propyl)pyrrolidin-3-ol], the IC50 was 20.1 to 90 nM. `N#Cc1cncc(COc2cc(OCc3cccc(-c4cccc(COc5cc(OCc6cncc(C#N)c6)c(C(=O)N6CCC(=O)CC6)cc5Cl)c4Cl)c3Cl)c(Cl)cc2C(=O)N2CCC(=O)CC2)c1` [Example 80010] showed an IC50 of 20.1 to 90 nM. `Cc1c(OCCCN(CCc2cccnc2)C[C@H](O)CO)cccc1-c1cccc(OCCCN(CCc2cccnc2)C[C@H](O)CO)c1C` [Example 2102, (2S,2′S)-3,3′-((((2,2′-dimethyl-[1,1′-biphenyl]-3,3′-diyl)bis(oxy))bis(propane-3,1-diyl))bis((2-(pyridin-3-yl)ethyl)azanediyl))bis(propane-1,2-diol)] was tested, and the IC50 was 20.1 to 90 nM. Work on `Cc1c(COc2cc(OCc3cncc(C#N)c3)c(CN(C[C@H](O)CO)C(CO)CO)cc2Cl)cccc1-c1cccc(COc2cc(OCc3cncc(C#N)c3)c(CN(C[C@H](O)CO)C(CO)CO)cc2Cl)c1C` [Example 2131, 5,5′-((((((2,2′-dimethyl-[1,1′-biphenyl]-3,3′-diyl)bis(methylene))bis(oxy))bis(4-chloro-6-(((1,3-dihydroxypropan-2-yl)((S)-2,3-dihydroxypropyl)amino)methyl)-3,1-phenylene))bis(oxy))bis(methylene))dinicotinonitrile] yielded an IC50 of 0.04 to 20 nM. With `Cc1c(COc2cc(OCc3cc(F)cc(F)c3)c(CN3CCCC[C@H]3C(=O)O)cc2Cl)cccc1-c1cccc(COc2cc(OCc3cc(F)cc(F)c3)c(CN3CCCC[C@H]3C(=O)O)cc2Cl)c1C` [Example 5006, (2S,2′S)-1,1′-(((((2,2′-dimethyl-[1,1′-biphenyl]-3,3′-diyl)bis(methylene))bis(oxy))bis(5-chloro-2-((3,5-difluorobenzyl)oxy)-4,1-phenylene))bis(methylene))bis(piperidine-2-carboxylic acid)] the IC50 was 0.04 to 20 nM. In the case of `Cc1c(COc2cc(OCc3cncc(C#N)c3)c(CNC[C@H](C)C(=O)O)cc2Cl)cccc1-c1cccc(COc2cc(OCc3cncc(C#N)c3)c(CNC[C@H](C)C(=O)O)cc2Cl)c1C` [Example 40500], the IC50 is reported as 0.04 to 20 nM. Work on `Cc1c(OCCCNC[C@@H](O)c2ccc(F)c(Cl)c2)cccc1-c1cccc(OCCCN2CC[C@@H](O)C2)c1C` [Example 2075, (R)-1-(3-((3′-(3-(((S)-2-(3-chloro-4-fluorophenyl)-2-hydroxyethyl)amino)propoxy)-2,2′-dimethyl-[1,1′-biphenyl]-3-yl)oxy)propyl)pyrrolidin-3-ol] yielded an IC50 of 20.1 to 90 nM.

Same assay, conditions: numeric IC50; PD-L1-His 10 nM, PD-1-Ig 20 nM; read-out: Range or IC50
Work on `O=C(O)C[C@@H](O)C(=O)NCCCOc1cccc(-c2cccc(OCCCNC(=O)[C@H](O)CC(=O)O)c2Cl)c1Cl` [Example 2136, (3R,3′R)-4,4′-((((2,2′-dichloro-[1,1′-biphenyl]-3,3′-diyl)bis(oxy))bis(propane-3,1-diyl))bis(azanediyl))bis(3-hydroxy-4-oxobutanoic acid)] yielded an IC50 of 3450 nM. For `N#Cc1cncc(COc2cc(OCc3cccc(-c4cccc(COc5cc(OCc6cncc(C#N)c6)c(CN6CCC(O)(C(=O)O)CC6)cc5Cl)c4)c3)c(Cl)cc2CO)c1` [Example 50040], the IC50 was 115 nM.
